Data on one compound can be found in PMC3983352 (Journal of Medicinal Chemistry, 2014).

SMILES strings stand for the structures.

Assay [1] has as its target wild-type HDAC1 (Homo sapiens, UniProt Q13547). In words: Acetate inhibition assay. Format: biochemical. Particulars: at least three independent trials, standard error.
Assay [2] relates to HDAC8 R37A. Particulars: HDAC8 R37A vs HDAC8 wild type; cited from earlier work.
Assay [3] has as its system recombinant HDAC8 wild type. Particulars: acetate inhibition; cited from earlier work.
Assay [4] has as its target HDAC1 R36A (Homo sapiens, UniProt Q13547, R36A). Description: Acetate inhibition assay. The class given is biochemical.
Assay [5] has as its target HDAC1 Y23A (Homo sapiens, UniProt Q13547, Y23A). In words: Acetate inhibition assay. Format: biochemical.
Assay [6] has as its target HDAC1 R34A (Homo sapiens, UniProt Q13547, R34A). Description: Acetate inhibition assay. The class given is biochemical.
Assay [7] deals with HDAC1 Y24A (Homo sapiens, UniProt Q13547, Y24A). Description: Acetate inhibition assay. The class given is biochemical.
Chain of HDAC1 Y24A (Q13547 whole entry Y24A): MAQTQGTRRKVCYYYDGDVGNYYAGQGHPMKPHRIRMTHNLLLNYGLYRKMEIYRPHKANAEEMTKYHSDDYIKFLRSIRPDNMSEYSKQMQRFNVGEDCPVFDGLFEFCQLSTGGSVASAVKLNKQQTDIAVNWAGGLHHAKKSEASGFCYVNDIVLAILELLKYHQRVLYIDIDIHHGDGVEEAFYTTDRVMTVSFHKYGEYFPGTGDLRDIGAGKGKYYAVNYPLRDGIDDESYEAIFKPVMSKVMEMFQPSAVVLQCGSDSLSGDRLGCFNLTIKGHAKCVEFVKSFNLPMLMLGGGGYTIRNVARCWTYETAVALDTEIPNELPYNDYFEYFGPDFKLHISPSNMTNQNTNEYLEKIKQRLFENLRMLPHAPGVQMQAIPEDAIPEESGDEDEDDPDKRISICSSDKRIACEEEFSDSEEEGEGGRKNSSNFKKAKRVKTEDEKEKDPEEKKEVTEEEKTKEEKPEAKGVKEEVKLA
Assay [8] concerns the target HDAC1 F205Y (Homo sapiens, UniProt Q13547, F205Y). Description: Acetate inhibition assay. Format: biochemical.
The target of assay [9] is HDAC1 C151A (Homo sapiens, UniProt Q13547, C151A). In words: Acetate inhibition assay. The class given is biochemical.
Chain of HDAC1 C151A (Q13547 whole entry C151A): as the sequence (Q13547 whole entry Y24A) above, with A24Y, C151A counted along it

Chain of HDAC1 R34A (Q13547 whole entry R34A): as the sequence (Q13547 whole entry Y24A) above, with A24Y, R34A counted along it
Chain of HDAC1 R36A (Q13547 whole entry R36A): as the sequence (Q13547 whole entry Y24A) above, with A24Y, R36A counted along it
Chain of HDAC1 Y23A (Q13547 whole entry Y23A): as the sequence (Q13547 whole entry Y24A) above, with Y23A, A24Y counted along it
Chain of wild-type HDAC1 (Q13547 whole entry): as the sequence (Q13547 whole entry Y24A) above, with A24Y counted along it
Chain of HDAC1 F205Y (Q13547 whole entry F205Y): as the sequence (Q13547 whole entry Y24A) above, with A24Y, F205Y counted along it

For `CC(=O)[O-].[Na+]` [acetate, sodium acetate], the IC50 (usually the midpoint of a concentration-inhibition curve) is 7.2 ± 0.54 mM in assay [1]; 2.5 mM in [3]; 16 ± 1.3 mM in assay [4] (acetate inhibition, HDAC1 R36A); 21 ± 1.5 mM in assay [5] (acetate inhibition, HDAC1 Y23A); 21 ± 1.6 mM in assay [6] (acetate inhibition, HDAC1 R34A); 19 ± 1.1 mM in assay [7] (acetate inhibition, HDAC1 Y24A). Moreover, the IC50 was found to be 8 ± 1.5 mM in assay [8] and 13 ± 1.1 mM in assay [9] (acetate inhibition, HDAC1 C151A). Also, the “fold reduction of acetate inhibition compared to wild type” value in assay [2] was 160 fold. The “fold reduction in acetate inhibition compared to the wild type” value in assay [4] (HDAC1 R36A vs wild type) was “roughly 2 fold”; in assay [5] (HDAC1 Y23A vs wild type) it was “roughly 3 fold”; in assay [6] (HDAC1 R34A vs wild type) it was “roughly 3 fold”; in assay [7] (HDAC1 Y24A vs wild type) it was “roughly 3 fold”; in assay [9] (HDAC1 C151A vs wild type), “roughly 2 fold”.
